Experimental data taken from ChEMBL document CHEMBL1143211, “Inhibitors of proteases and amide hydrolases that employ an alpha-ketoheterocycle as a key enabling functionality” (Bioorg Med Chem, 2008).

Key:
Cathepsin S = Cathepsin S (Homo sapiens, UniProt P25774); assay: Inhibition of human recombinant cathepsin S
[1] = Selectivity for rat FAAH over triacylglycerol hydrolase
[2] = Inhibition of HDAC
Prolyl endopeptidase = Prolyl endopeptidase (Sus scrofa, UniProt P23687)
[3] = Inhibition of bovine trypsin; parameters: species or system Bos taurus
Cathepsin B = Cathepsin B (Homo sapiens, UniProt P07858); assay: Inhibition of human liver cathepsin B
Cathepsin K = biological target: T1, Cathepsin K (Homo sapiens, UniProt P43235); assay: Inhibition of human recombinant cathepsin K
T1 sequence (P43235 whole entry): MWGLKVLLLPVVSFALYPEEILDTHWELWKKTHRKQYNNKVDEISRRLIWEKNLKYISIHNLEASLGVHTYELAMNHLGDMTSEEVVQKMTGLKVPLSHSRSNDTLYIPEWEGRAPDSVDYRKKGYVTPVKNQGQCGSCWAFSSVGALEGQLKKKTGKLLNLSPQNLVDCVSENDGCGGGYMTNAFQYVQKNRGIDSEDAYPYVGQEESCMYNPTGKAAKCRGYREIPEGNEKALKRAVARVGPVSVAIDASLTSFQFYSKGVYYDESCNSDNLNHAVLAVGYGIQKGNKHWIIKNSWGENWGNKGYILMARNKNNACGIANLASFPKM

Procathepsin L = Procathepsin L (Homo sapiens, UniProt P07711); assay: Inhibition of human recombinant cathepsin L
[4] = Inhibition of human beta-tryptase
[5] = biological target: T2, Fatty-acid amide hydrolase 1 (Rattus norvegicus, UniProt P97612)
T2 sequence (P97612 whole entry): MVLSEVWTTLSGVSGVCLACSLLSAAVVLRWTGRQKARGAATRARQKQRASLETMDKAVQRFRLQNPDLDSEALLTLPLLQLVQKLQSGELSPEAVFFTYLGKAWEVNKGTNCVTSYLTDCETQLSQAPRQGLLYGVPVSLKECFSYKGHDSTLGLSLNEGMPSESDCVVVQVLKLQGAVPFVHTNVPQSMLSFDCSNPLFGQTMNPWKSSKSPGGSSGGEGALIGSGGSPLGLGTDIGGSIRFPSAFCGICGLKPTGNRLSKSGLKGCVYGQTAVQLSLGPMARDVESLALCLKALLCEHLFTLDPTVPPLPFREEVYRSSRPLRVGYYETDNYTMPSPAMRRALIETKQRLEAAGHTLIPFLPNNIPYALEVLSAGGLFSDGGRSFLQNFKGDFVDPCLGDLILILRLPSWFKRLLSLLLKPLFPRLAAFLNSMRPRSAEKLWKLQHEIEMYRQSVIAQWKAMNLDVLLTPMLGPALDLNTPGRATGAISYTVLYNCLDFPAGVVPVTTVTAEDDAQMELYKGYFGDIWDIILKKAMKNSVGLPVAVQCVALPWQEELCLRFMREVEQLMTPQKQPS

Prothrombin = Prothrombin (Homo sapiens, UniProt P00734); assay: Inhibition of human alpha-thrombin
[6] = Oral bioavailability in rat; type: ADME, organism-based; settings: in vivo

Cathepsin S, sequence (P25774 whole entry): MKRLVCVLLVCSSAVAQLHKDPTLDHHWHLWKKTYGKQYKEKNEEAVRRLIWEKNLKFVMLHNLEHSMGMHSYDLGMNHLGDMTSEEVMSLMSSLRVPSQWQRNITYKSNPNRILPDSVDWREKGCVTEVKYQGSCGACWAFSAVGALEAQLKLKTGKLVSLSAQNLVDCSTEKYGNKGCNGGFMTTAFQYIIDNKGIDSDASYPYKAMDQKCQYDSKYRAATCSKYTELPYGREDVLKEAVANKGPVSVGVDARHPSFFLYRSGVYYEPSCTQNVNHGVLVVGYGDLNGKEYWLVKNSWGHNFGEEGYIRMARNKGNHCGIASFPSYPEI
Procathepsin L, sequence (P07711 whole entry): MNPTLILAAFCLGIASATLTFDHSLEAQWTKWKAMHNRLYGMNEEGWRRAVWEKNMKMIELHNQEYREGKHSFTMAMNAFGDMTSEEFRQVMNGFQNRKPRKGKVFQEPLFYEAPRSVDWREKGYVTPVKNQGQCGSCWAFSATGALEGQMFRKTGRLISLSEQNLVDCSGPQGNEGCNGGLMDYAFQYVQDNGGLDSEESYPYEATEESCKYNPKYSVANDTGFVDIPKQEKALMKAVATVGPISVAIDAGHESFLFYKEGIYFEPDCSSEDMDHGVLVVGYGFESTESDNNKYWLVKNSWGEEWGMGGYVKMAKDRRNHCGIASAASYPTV
Prolyl endopeptidase, sequence (P23687 whole entry): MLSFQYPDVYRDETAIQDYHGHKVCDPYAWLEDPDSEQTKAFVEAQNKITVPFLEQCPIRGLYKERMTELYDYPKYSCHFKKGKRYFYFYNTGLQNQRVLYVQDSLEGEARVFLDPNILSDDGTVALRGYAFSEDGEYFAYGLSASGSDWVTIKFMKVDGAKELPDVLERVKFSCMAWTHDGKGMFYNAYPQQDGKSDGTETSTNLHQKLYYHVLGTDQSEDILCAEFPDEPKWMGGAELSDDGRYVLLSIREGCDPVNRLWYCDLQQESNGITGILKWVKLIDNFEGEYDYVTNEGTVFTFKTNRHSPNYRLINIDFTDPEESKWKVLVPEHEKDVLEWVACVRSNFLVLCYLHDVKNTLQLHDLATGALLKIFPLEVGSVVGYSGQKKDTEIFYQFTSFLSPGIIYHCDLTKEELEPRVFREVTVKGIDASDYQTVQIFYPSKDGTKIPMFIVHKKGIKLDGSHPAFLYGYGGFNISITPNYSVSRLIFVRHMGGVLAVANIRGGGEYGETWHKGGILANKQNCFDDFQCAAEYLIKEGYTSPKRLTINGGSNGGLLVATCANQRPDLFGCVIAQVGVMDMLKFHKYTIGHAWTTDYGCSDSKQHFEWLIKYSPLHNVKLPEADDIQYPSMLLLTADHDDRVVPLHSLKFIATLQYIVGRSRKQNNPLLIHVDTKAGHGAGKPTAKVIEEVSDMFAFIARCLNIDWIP

In the case of `O=C(N[C@@H](CCc1ccccc1)C(=O)c1ncco1)[C@@H](CC(=O)N1CCOCC1)CC1CCCCC1`, the Ki (Cathepsin S) is reported as < 100 nM.
Molecule `CCCCCCCC/C=C\CCCCCCCC(=O)c1nnc(-c2ccccn2)o1` has a Selectivity ratio [1] of 5000.
`CNC(=O)C(=O)CCCCCCOc1ccc(-c2ccccc2)cc1` showed an IC50 [2] of 110 nM.
In the case of `O=C(CCCCCCCCc1ccccc1)c1nnc(-c2ccccn2)o1`, the Selectivity ratio [1] is reported as 600.
`O=C(c1nc2ccccc2o1)[C@@H]1CCCN1C(=O)[C@@H]1CCCN1CCCc1ccccc1` gave an IC50 (Prolyl endopeptidase) of 5.6 nM.
Molecule `CN[C@H](Cc1ccccc1)C(=O)N1CCC[C@H]1C(=O)N[C@@H](CCCNC(=N)N)C(=O)c1ccccn1` has a Ki [3] of 73 nM.
Work on `CCCC[C@H](NC(=O)OCc1ccccc1)C(=O)c1nnc(-c2ccco2)o1` yielded a Ki (Cathepsin B) of 34000 nM, a Ki (Cathepsin K) of 3000 nM and a Ki (Procathepsin L) of 28000 nM. It also gave a Ki (Cathepsin S) of 2000 nM.
`CC(=O)N1CCC[C@@H]1C(=O)N[C@@H](CCCN=C(N)N)C(=O)c1nc2ccccc2s1` gave a Ki [4] of 14000 nM.
In the case of `CN[C@H](Cc1ccccc1)C(=O)N1CCC[C@H]1C(=O)N[C@@H](CCCNC(=N)N)C(=O)c1nc2ccccc2n1C`, the Ki [3] is reported as 290 nM.
For `CCCCCCCCCCCC(=O)c1nc2ncccc2o1`, the Ki [5] was 0.57 nM and the Selectivity ratio [1] was 100.
Molecule `CC(C)C[C@H](NC(=O)C1CCNCC1)C(=O)N[C@@H](CCc1ccccc1)C(=O)c1nc2ccccc2o1` has a Ki (Cathepsin B) of 2100 nM, a Ki (Cathepsin K) of 9.5 nM and a Ki (Procathepsin L) of 30 nM.
In the case of `O=C(CCCCCCOc1ccc(-c2ccccc2)cc1)c1nccs1`, the IC50 [2] is reported as > 50000 nM.
`CC(C)C[C@H](NC(=O)C1CCNCC1)C(=O)N[C@@H](CCc1ccccc1)C(=O)c1nc2cc(C(C)(C)C)ccc2o1` showed a Ki (Cathepsin B) of 7000 nM, a Ki (Cathepsin K) of 8.5 nM and a Ki (Procathepsin L) of 70 nM. For the same molecule, the Ki (Cathepsin S) was 30 nM.
In the case of `CC(=O)N1C[C@H](O)C[C@@H]1C(=O)N[C@@H](CCCNC(=N)N)C(=O)c1nc2ccccc2s1`, the Ki [4] is reported as 380 nM.
In the case of `O=C(CCCCCCOc1ccc(-c2ccccc2)cc1)c1nc2ccccc2o1`, the IC50 [2] is reported as > 50000 nM.
With `O=C(CCCCCCOc1ccc(-c2ccccc2)cc1)c1ncc[nH]1` the IC50 [2] was > 50000 nM.
`CS(=O)(=O)N1CCC[C@H]1C(=O)N[C@@H](CCCNC(=N)N)C(=O)c1nc2ccccc2s1` showed a Ki [3] of 38 nM and a Ki [4] of 33 nM.
Molecule `NCCCCC(NC(=O)[C@H](Cc1ccccc1)NC(=O)[C@@H](Cc1ccccc1)NS(=O)(=O)Cc1ccccc1)C(=O)c1nc2ccccc2s1` (some centres not stated) has a Ki [4] of 23 nM.
Work on `CC(=O)N1CCC[C@H]1C(=O)N[C@@H](CCCN=C(N)N)C(=O)c1nc2ccccc2s1` yielded a Ki [4] of 19 nM and an IC50 (Prothrombin) of 14000 nM.
With `O=C(CCCCCCOc1ccc(-c2ccccc2)cc1)c1ccccn1` the IC50 [2] was > 50000 nM.
`O=C(CCCCCCOc1ccc(-c2ccccc2)cc1)C1=NCCO1` gave an IC50 [2] of 1000 nM.
`O=C(CCCCCCOc1cccc(-c2ccccc2)c1)c1ncco1` gave an IC50 [2] of 620 nM.
With `CC(=O)NCC(=O)N[C@@H](CCCN=C(N)N)C(=O)c1nc2ccccc2s1` the Ki [4] was 470 nM.
With `Cn1ccnc1C(=O)CCCCCCOc1ccc(-c2ccccc2)cc1` the IC50 [2] was > 50000 nM.
With `CC(=O)N[C@@H](CC(C)C)C(=O)N[C@@H](CCCN=C(N)N)C(=O)c1nc2ccccc2s1` the Ki [4] was 41 nM.
With `CCOC(=O)c1csc(C(=O)[C@H](CCCNC(=N)N)NC(=O)[C@@H]2CCCN2C(=O)[C@@H](Cc2ccccc2)NC)n1` the Ki [3] was 5.4 nM and the Ki (Prothrombin) was 4.5 nM.
With `CCCC[C@H](NC(=O)OCC(C)C)C(=O)c1nnc(-c2ccco2)o1` the Ki (Cathepsin B) was 16000 nM, the Ki (Cathepsin K) was 500 nM and the Ki (Procathepsin L) was 14000 nM. For the same molecule, the Ki (Cathepsin S) was 380 nM.
`CC(NC(=O)[C@H](CC(=O)N(C)C)NC(=O)[C@@H](NC(=O)CC(C)(C)C)C(C)(C)C)C(=O)c1nc2ccccc2o1` (some centres not stated) gave an IC50 (Prolyl endopeptidase) of 80 nM.
Work on `O=C(c1cscn1)[C@@H]1CCCN1C(=O)[C@@H]1CCCN1CCCc1ccccc1` yielded an IC50 (Prolyl endopeptidase) of 13 nM.
Molecule `CC(=O)N1C[C@H](O)C[C@H]1C(=O)N[C@@H](CCCNC(=N)N)C(=O)c1nccs1` has a Ki [4] of 180 nM.
With `O=C(CCCCCCC(=O)c1ncco1)Nc1cc2ccccc2[nH]1` the IC50 [2] was 90 nM.
With `CCCC(F)(F)C[C@H](NC(=O)N1CCOCC1)C(=O)N[C@@H](CC)C(=O)c1nc(C2CC2)no1` the Ki (Cathepsin S) was < 100 nM.
Work on `O=C(c1nc2ccccc2s1)[C@@H]1CCCN1C(=O)[C@@H]1CCCN1OCc1ccccc1` yielded an IC50 (Prolyl endopeptidase) of 5.6 nM.
`O=C(CCCCCCOc1ccc(-c2ccccc2)cc1)c1ncco1` showed an IC50 [2] of 1000 nM.
`CC(NC(=O)[C@H](CC(=O)N(C)C)NC(=O)[C@@H](NC(=O)CC(C)(C)C)C(C)(C)C)C(=O)c1nc2ccccc2s1` (some centres not stated) gave an IC50 (Prolyl endopeptidase) of 9000 nM.
`CCCC[C@H](NC(=O)CCc1ccccc1)C(=O)c1nnc(-c2ccco2)o1` showed a Ki (Cathepsin B) of 25000 nM, a Ki (Cathepsin K) of 9600 nM and a Ki (Procathepsin L) of 100000 nM. The Ki (Cathepsin S) was 26000 nM.
Work on `COc1ccc(-c2csc(NC(=O)CCCCCCC(=O)c3ncco3)n2)cc1` yielded an IC50 [2] of 30 nM.
In the case of `N=C(N)NCCC[C@H](NC(=O)[C@@H]1CCCN1C(=O)c1ccccc1)C(=O)c1nc2ccccc2s1`, the Ki [3] is reported as 160 nM and the Ki [4] is reported as 250 nM.
For `NCCCC[C@H](NC(=O)[C@@H]1CCCN1C(=O)[C@@H](CC1CCCCC1)NCC(=O)O)C(=O)c1ncco1`, the bioavailability [6] was < 5%.
For `O=C(CCCCCC(=O)c1ncco1)Nc1cccc(-c2ccccc2)c1`, the IC50 [2] was 310 nM.
With `O=C(C1=NCCS1)[C@@H]1CCCN1C(=O)[C@@H]1CCCN1CCCc1ccccc1` the IC50 (Prolyl endopeptidase) was 3.8 nM.
Molecule `O=C(c1ncc[nH]1)[C@@H]1CCCN1C(=O)[C@@H]1CCCN1CCCc1ccccc1` has an IC50 (Prolyl endopeptidase) of 9 nM.
Molecule `O=C(c1nc2ccccc2s1)[C@@H]1CCCN1C(=O)[C@@H]1CCCN1CCCc1ccccc1` has an IC50 (Prolyl endopeptidase) of 4 nM.
With `O=C(c1nccs1)[C@@H]1CCCN1C(=O)[C@@H]1CCCN1CCCc1ccccc1` the IC50 (Prolyl endopeptidase) was 5 nM.
In the case of `O=C(CCCCCCOc1ccc(-c2ccccc2)cc1)c1nnn[nH]1`, the IC50 [2] is reported as 1000 nM.
`O=C(c1ccccn1)[C@@H]1CCCN1C(=O)[C@@H]1CCCN1CCCc1ccccc1` gave an IC50 (Prolyl endopeptidase) of 6.9 nM.
With `NCCCC[C@H](NC(=O)[C@@H]1CCCN1C(=O)[C@H](N)CC1CCCCC1)C(=O)c1nccs1` the bioavailability [6] was 23%.
For `CCCC[C@H](NC(=O)C(=O)[C@H](CC(C)C)NC(=O)OCc1ccccc1)C(=O)c1nnc(-c2ccco2)o1`, the Ki (Cathepsin B) was 2 nM, the Ki (Cathepsin K) was < 0.25 nM and the Ki (Procathepsin L) was 1 nM. For the same molecule, the Ki (Cathepsin S) was < 0.25 nM.
Molecule `CC(C)C[C@H](NC(=O)C1CCNCC1)C(=O)N[C@@H](CCc1ccccc1)C(=O)c1nc2cc(S(N)(=O)=O)ccc2o1` has a Ki (Cathepsin B) of 90 nM, a Ki (Cathepsin K) of 40 nM and a Ki (Procathepsin L) of 220 nM. For the same molecule, the Ki (Cathepsin S) was 40 nM.
With `CCCC[C@H](NC(=O)[C@H](CS(=O)(=O)Cc1ccccc1)NC(=O)N1CCOCC1)C(=O)c1nnc(-c2ccccc2)o1` the Ki (Cathepsin S) was < 100 nM.
Molecule `N=C(N)NCCC[C@H](NC(=O)[C@@H]1CC[C@@H]2CC[C@@](N)(Cc3ccccc3)C(=O)N21)C(=O)c1nc2ccccc2s1` has a bioavailability [6] of 2% and a Ki (Prothrombin) of 0.85 nM.
In the case of `CCC[C@H](NC(=O)[C@@H](CC(=O)N1CCOCC1)CC(C)(C)C)C(=O)c1nc2ccccc2o1`, the Ki (Cathepsin S) is reported as < 100 nM.
For `CC[C@H](NC(=O)[C@H](CS(=O)(=O)Cc1ccccc1)OC(=O)N1CCOCC1)C(=O)c1nc2ccccc2o1`, the Ki (Cathepsin S) was < 10 nM.
`O=C(CCCCCCNc1ccc2ccccc2c1)c1ncco1` showed an IC50 [2] of 430 nM.
In the case of `N=C(N)NCCC[C@H](NC(=O)[C@@H]1CCN2CC[C@@](N)(Cc3ccccc3)C(=O)N12)C(=O)c1nc2ccccc2s1`, the bioavailability [6] is reported as 25% and the Ki (Prothrombin) is reported as 0.65 nM.
In the case of `CN[C@H](Cc1ccccc1)C(=O)N1CCC[C@H]1C(=O)N[C@@H](CCCNC(=N)N)C(=O)c1nccn1C`, the Ki [3] is reported as 5800 nM.
Molecule `Cc1ccnc(-c2cnc(C(=O)CCCCCCc3ccccc3)o2)c1` has a Ki [5] of 0.6 nM and a Selectivity ratio [1] of 2000.
For `O=C(CCCCCCC(=O)c1ncco1)Nc1cccc(-c2ccccc2)c1`, the IC50 [2] was 60 nM.
In the case of `O=C(c1cncs1)[C@@H]1CCCN1C(=O)[C@@H]1CCCN1CCCc1ccccc1`, the IC50 (Prolyl endopeptidase) is reported as 1100 nM.
